The values below come from US20250163057A1, “DCN-1 MODULATING COMPOUNDS AND METHODS OF USE THEREOF” (Cellarity, Inc., priority 2023, published 2025).

In test [1] the test system is fetal hemoglobin gene HBG1. Description: HBG1 Nanostring Assay in CD34+ HSPC erythroid differentiation culture. Conditions: for EC50: Homo sapiens, 240 h, HBG1 induction, Day10 of erythroid differentiation; for Nanostring Ymax obs (%): relative to a control compound (C1). It is filed as cell-based, human. The gist of the method:
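CD34+ HSPCs were dosed from day −2 (0.1% DMSO) through two-phase erythroid differentiation (EPO, transferrin, SCF, IL-3, insulin; IL-3 removed from day 7) at 37° C, 5% CO2. Day-10 lysates of 100K cells were hybridized at 67° C for 22 h for nCounter counting, normalized to ERCC and housekeeping controls. EC50 and Ymax were derived, with Ymax relative to a control compound.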

A further test addresses DCN1 protein (Homo sapiens (Human), UniProt Q96GG9). The experiment in a line: Intact Protein MS Analysis with the RapidFire-TOF System (covalent adduct formation). Conditions: MS Emax; 400 nM DCN1, 3 hours at room temperature. Type of test: binding. The gist of the method:
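Tag-cleaved human DCN1 (400 nM) expressed in E. coli, in 25 mM Tris-HCl, 200 mM NaCl, 1 mM DTT, was incubated with 11 compound concentrations for 3 h at room temperature and quenched with 0.2% formic acid. Intact-protein Q-TOF MS with deconvolution detected the compound adduct mass.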

In test [2] the test system is Cullin-3 (CUL3) neddylation. The experiment in a line: AlphaLISA assay for Cullin-3 (CUL3) neddylation in TF 1 cells. It is filed as cell-based. Conditions: Homo sapiens, TF-1, 3 h, 3 hours treatment. The method in brief: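 TF 1 cells in unsupplemented IMDM treated with compound concentrations for 3 h, then lysed. CUL3 neddylation detected by AlphaLISA (biotinylated anti-NEDD8, anti-CUL3 acceptor beads overnight, streptavidin donor beads 1 h); normalized to vehicle (0%) and 1 μM DI-1548 (100%), IC50 from Hill fits.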
In general terms: In Alpha technology, singlet oxygen from a donor bead excites a nearby acceptor bead.

Test [3] concerns the target DCN1 (DCUND1) protein PONY domain (Homo sapiens (Human), UniProt Q96GG9). The experiment in a line: TR-FRET assay, DCN1 binding with FAM-labeled probe. The method in brief: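 TR-FRET ratio (Tb-DCN1 to FAM-probe) read at 1, 5 and 24 hrs after compound addition. Protein: recombinant PONY domain from E. coli, biotinylated and coupled to streptavidin terbium. Either 5 nM DCN1 with 20 nM FAM-probe, or 0.31 nM DCN1 with 100 nM FAM-labelled plus 800 nM unlabelled probe.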
(TR-FRET usually uses a lanthanide donor and a delayed reading to cut background.)

The mark [4] stands for this setting: 24 hr after treatment with compound, read-out: TR FRET IC50 24 hr.
[5] abbreviates: read-out: TR FRET IC50 1 hr, 1 hr after treatment with compound.
[6] abbreviates: TR FRET IC50 1 hr (nM), 1 hr after treatment with compound.

Where two headings read alike, the source gives them in different places.

Chain of DCN1 protein (Q96GG9 whole entry): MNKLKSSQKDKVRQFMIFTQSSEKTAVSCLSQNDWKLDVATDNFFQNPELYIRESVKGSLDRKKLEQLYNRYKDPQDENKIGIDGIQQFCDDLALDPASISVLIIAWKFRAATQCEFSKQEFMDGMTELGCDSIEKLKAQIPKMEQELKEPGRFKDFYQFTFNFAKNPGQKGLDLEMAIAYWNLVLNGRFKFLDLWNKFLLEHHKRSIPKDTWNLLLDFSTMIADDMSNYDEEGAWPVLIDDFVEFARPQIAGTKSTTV
Chain of DCN1 (DCUND1) protein PONY domain (Q96GG9 60-248): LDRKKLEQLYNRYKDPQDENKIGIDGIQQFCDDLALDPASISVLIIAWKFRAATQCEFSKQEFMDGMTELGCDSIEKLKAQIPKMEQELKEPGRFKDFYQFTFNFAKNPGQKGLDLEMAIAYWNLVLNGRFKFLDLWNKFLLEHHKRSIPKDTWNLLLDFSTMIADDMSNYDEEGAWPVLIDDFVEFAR

As a reminder, the EC50 is the concentration giving half of the maximal effect. The low end stands for greater potency, the high end for weaker potency. In general, IC50 refers to the concentration that gives 50% inhibition. Compound `C=C(CN1CCOCC1)C(=O)N[C@H](C)c1nn(-c2ccccc2)c2c1[C@H](c1ccc(F)cc1)[C@H](NC(=O)c1cccc(C(F)(F)F)c1)C(=O)N2CC` (mixture of isomers) [Compound I-8] had an EC50 in test [1] greater than 1000 nM. Moreover, in test [1], the “Nanostring Ymax obs (%)” value is “++ (Nanostring Ymax greater than 50.0 and less than or equal to 100.0)”. Besides, on DCN1 protein, the “% Adduct Formation” value is “+ (MS Emax % adduct formation greater than or equal to 0.0 and less than or equal to 30.0)”. Also, the IC50 was 100 to 1000 nM in test [2], no more than 200 nM in test [3] (setting [4]) and no more than 200 nM in test [3] (setting [5]).
Compound `C=CS(=O)(=O)N[C@H](C)c1nn(-c2ccccc2)c2c1[C@H](c1ccc(F)cc1)[C@H](NC(=O)c1cccc(C(F)(F)F)c1)C(=O)N2CC` (mixture of isomers) [Compound I-74] displayed an EC50 in test [1] of 100 to 1000 nM. Besides, the “Nanostring Ymax obs (%)” value in test [1] was “++ (Nanostring Ymax greater than 50.0 and less than or equal to 100.0)”. For the same compound, the “% Adduct Formation” value on DCN1 protein was “+++ (MS Emax % adduct formation greater than 80.0 and less than or equal to 100.0)”. For the same compound, the IC50 was no more than 100 nM in test [2], no more than 200 nM in test [3] (setting [4]) and no more than 200 nM in test [3] (setting [5]).
Regarding `C=C(C(=O)NCc1nn(-c2ccccc2)c2c1[C@@H](c1ccc(F)cc1)[C@H](NC(=O)c1cccc(C(F)(F)F)c1)C(=O)N2CC)C(C)N1CCOCC1` (mixture of isomers) [Compound I-88], in test [1], the EC50 is greater than 1000 nM. In addition, the “Nanostring Ymax obs (%)” value in test [1] is “+ (Nanostring Ymax greater than or equal to 0.0 and less than or equal to 50.0)”. The “% Adduct Formation” value on DCN1 protein was “+ (MS Emax % adduct formation greater than or equal to 0.0 and less than or equal to 30.0)”. In addition, the IC50 is no more than 100 nM in test [2], no more than 200 nM in test [3] (setting [4]) and no more than 200 nM in test [3] (setting [5]).
In test [1], `CCN1C(=O)[C@@H](NC(=O)c2cccc(C(F)(F)F)c2)[C@@H](c2ccc(F)cc2)c2c(NC(=O)[C@@H](C)Cl)nn(-c3ccccc3)c21` (mixture of isomers) [Compound I-101] showed an EC50 greater than 1000 nM. Moreover, the “Nanostring Ymax obs (%)” value in test [1] was “++ (Nanostring Ymax greater than 50.0 and less than or equal to 100.0)”. For the same compound, on DCN1 protein, the “% Adduct Formation” value was “+ (MS Emax % adduct formation greater than or equal to 0.0 and less than or equal to 30.0)”. Besides, the IC50 in test [2] was in the range of 100 to 1000 nM; in test [3] (setting [4]) it was 200 to 1000 nM; in test [3] (setting [6]) it was 200 to 1000 nM.
As to `C=CC(=O)N[C@@H](C)c1nn(-c2ccccc2)c2c1[C@H](c1ccc(F)cc1)[C@H](NC(=O)c1cccc(C(F)(F)F)c1)C(=O)N2CC` (mixture of isomers) [Compound I-143], the EC50 in test [1] was greater than 1000 nM. In test [1], the “Nanostring Ymax obs (%)” value is “+ (Nanostring Ymax greater than or equal to 0.0 and less than or equal to 50.0)”. The “% Adduct Formation” value on DCN1 protein is “+ (MS Emax % adduct formation greater than or equal to 0.0 and less than or equal to 30.0)”. In addition, the figures for the IC50 in test [2], in test [3] (setting [4]) and in test [3] (setting [6]) were greater than 1000 nM, 200 to 1000 nM and 200 to 1000 nM, respectively.
With `CCN1C(=O)[C@@H](NC(=O)c2cccc(C(F)(F)F)c2)[C@@H](c2ccc(F)cc2)c2c(C(=O)N3CCCC[C@H]3C#N)nn(-c3ccccc3)c21` (mixture of isomers) [Compound I-270], the EC50 in test [1] lay in the range of 100 to 1000 nM. In addition, the “Nanostring Ymax obs (%)” value in test [1] is “++ (Nanostring Ymax greater than 50.0 and less than or equal to 100.0)”. Also, at DCN1 protein, the “% Adduct Formation” value was “+++ (MS Emax % adduct formation greater than 80.0 and less than or equal to 100.0)”. Also, the IC50 in test [2] is no more than 100 nM; in test [3] (setting [4]) it was no more than 200 nM; in test [3] (setting [5]) it was no more than 200 nM.
Take `CCN1C(=O)[C@@H](NC(=O)c2cccc(C(F)(F)F)c2)[C@@H](c2ccc(F)cc2)c2c(C(=O)N3C[C@H](F)C[C@H]3C#N)nn(-c3ccccc3)c21` (mixture of isomers) [Compound I-273]: the “Nanostring Ymax obs (%)” value in test [1] was “+++ (Nanostring Ymax greater than 100.0)”. Moreover, the “% Adduct Formation” value at DCN1 protein is “+++ (MS Emax % adduct formation greater than 80.0 and less than or equal to 100.0)”. Moreover, the IC50 in test [2] is no more than 100 nM; in test [3] (setting [4]) it was no more than 200 nM; in test [3] (setting [5]) it was no more than 200 nM.
In turn, `CCN1C(=O)[C@@H](NC(=O)c2cccc(C(F)(F)F)c2)[C@@H](c2ccc(F)cc2)c2c(C(=O)N3CCC[C@H]3C#N)nn(C3CCOCC3)c21` (mixture of isomers) [Compound I-292] showed an EC50 in test [1] of no more than 100 nM. Besides, the “Nanostring Ymax obs (%)” value in test [1] is “+++ (Nanostring Ymax greater than 100.0)”. Further, on DCN1 protein, the “% Adduct Formation” value was “+++ (MS Emax % adduct formation greater than 80.0 and less than or equal to 100.0)”. Moreover, the IC50 was no more than 100 nM in test [2], no more than 200 nM in test [3] (setting [4]) and no more than 200 nM in test [3] (setting [5]).
`CCN1C(=O)[C@@H](NC(=O)c2cccc(C(F)(F)F)c2)[C@@H](C)c2c(C(=O)N3[C@H](C#N)C[C@H]4C[C@H]43)nn(C3CCOCC3)c21` (mixture of isomers) [Compound I-386] had a half-maximal effective concentration (EC50) in test [1] of no more than 100 nM. The “Nanostring Ymax obs (%)” value in test [1] was “+++ (Nanostring Ymax greater than 100.0)”. Also, the “% Adduct Formation” value on DCN1 protein was “+++ (MS Emax % adduct formation greater than 80.0 and less than or equal to 100.0)”. The IC50 in test [2] was no more than 100 nM; in test [3] (setting [4]), no more than 200 nM; in test [3] (setting [5]), no more than 200 nM.
Turning to `C=CS(=O)(=O)N(C)Cc1nn(-c2ccccc2)c2c1[C@H](c1ccc(F)cc1)[C@H](NC(=O)c1cccc(C(F)(F)F)c1)C(=O)N2CC` (racemic) [Compound I-1], the EC50 in test [1] was greater than 1000 nM. The “Nanostring Ymax obs (%)” value in test [1] is “++ (Nanostring Ymax greater than 50.0 and less than or equal to 100.0)”. In addition, on DCN1 protein, the “% Adduct Formation” value is “+++ (MS Emax % adduct formation greater than 80.0 and less than or equal to 100.0)”. Also, the IC50 in test [2] was no more than 100 nM; in test [3] (setting [4]) it was no more than 200 nM; in test [3] (setting [5]), no more than 200 nM.
In the case of `C=C(CC(=O)NCc1nn(-c2ccccc2)c2c1[C@H](c1ccc(F)cc1)[C@H](NC(=O)c1cccc(C(F)(F)F)c1)C(=O)N2CC)C(=O)OC` (racemic) [Compound I-4], the EC50 in test [1] lay within 100 to 1000 nM. Also, the “Nanostring Ymax obs (%)” value in test [1] is “++ (Nanostring Ymax greater than 50.0 and less than or equal to 100.0)”. In addition, the “% Adduct Formation” value at DCN1 protein is “+++ (MS Emax % adduct formation greater than 80.0 and less than or equal to 100.0)”. For the same compound, the results for the IC50 in test [2], in test [3] (setting [4]) and in test [3] (setting [6]) were no more than 100 nM, no more than 200 nM and no more than 200 nM, respectively.
`CCN1C(=O)[C@@H](NC(=O)c2cccc(C(F)(F)F)c2)[C@@H](c2ccc(F)cc2)c2c(CNC(=O)C(C)(C)C#N)nn(-c3ccccc3)c21` (racemic) [Compound I-7, rac-N-((4R,5R)-3-((2-cyano-2-methylpropanamido)methyl)-7-ethyl-4-(4-fluorophenyl)-6-oxo-1-phenyl-4,5,6,7-tetrahydro-1H-pyrazolo[3,4-b]pyridine-5-yl)-3-(trifluoromethyl)benzamide] had an EC50 in test [1] greater than 1000 nM. Further, the “Nanostring Ymax obs (%)” value in test [1] is “+ (Nanostring Ymax greater than or equal to 0.0 and less than or equal to 50.0)”. Further, on DCN1 protein, the “% Adduct Formation” value is “+ (MS Emax % adduct formation greater than or equal to 0.0 and less than or equal to 30.0)”. The IC50 in test [2] lay in the range of 100 to 1000 nM; in test [3] (setting [4]), 1000 to 3000 nM; in test [3] (setting [6]), 1000 to 3000 nM.
As to `CCN1C(=O)[C@@H](NC(=O)c2cccc(C(F)(F)F)c2)[C@@H](c2ccc(F)cc2)c2c(CN(C)C(=O)CCl)nn(-c3ccccc3)c21` (racemic) [Compound I-227], in test [1], the EC50 was in the range of 100 to 1000 nM; the “Nanostring Ymax obs (%)” value is “++ (Nanostring Ymax greater than 50.0 and less than or equal to 100.0)”. Moreover, the “% Adduct Formation” value on DCN1 protein is “++ (MS Emax % adduct formation greater than 30.0 and less than or equal to 80.0)”. The same compound had an IC50 in test [2] of no more than 100 nM.
With `CCN1C(=O)[C@@H](NC(=O)c2cccc(C(F)(F)F)c2)[C@@H](c2ccc(F)cc2)c2c(CNC(=O)/C(C#N)=C/C(C)C)nn(-c3ccccc3)c21` (racemic) [Compound I-241], the “Nanostring Ymax obs (%)” value in test [1] was “+ (Nanostring Ymax greater than or equal to 0.0 and less than or equal to 50.0)”. The “% Adduct Formation” value on DCN1 protein is “+++ (MS Emax % adduct formation greater than 80.0 and less than or equal to 100.0)”. Moreover, the IC50 in test [2] is no more than 100 nM.
In the case of `CCN1C(=O)[C@@H](NC(=O)c2cccc(C(F)(F)F)c2)[C@@H](c2ccc(F)cc2)c2c([C@@H](C)NC(=O)C(C)Br)nn(-c3ccccc3)c21` (stereo in doubt) [Compound I-197], in test [1], the EC50 is greater than 1000 nM; the “Nanostring Ymax obs (%)” value was “++ (Nanostring Ymax greater than 50.0 and less than or equal to 100.0)”. Further, the “% Adduct Formation” value on DCN1 protein was “+ (MS Emax % adduct formation greater than or equal to 0.0 and less than or equal to 30.0)”. The same compound came in with an IC50 in test [2] greater than 1000 nM.
